Measurements: article PMC12661054, “The CIP2A-TOPBP1 axis facilitates mitotic DNA repair via MiDAS and MMEJ” (Nature Communications, 2025)

Columns and labels:
[1] = system: eGFP-SLX4 and MUS81; assay: Chromatin residency of eGFP-SLX4 and MUS81 (chromatin-fraction co-IP); assay type: cell-based, human; settings: acute CDK1 inhibition, eGFP-SLX4 Co-IP from mitotic chromatin
Procedure: Cell pellets stored at −80 °C were thawed on ice, followed by addition of ten volumes to 1 NIB-250 (15 mM Tris-HCL (pH 7.5), 60 mM KCl, 15 mM NaCl, 5 mM MgCl2, 1 mM CaCl2, 250 mM sucrose) containing 1 mM DTT, 1x cOmplete, EDTA-free Protease Inhibitor +0.3% NP. The cells were mixed by pipetting gently and then incubated on ice for 10 min. The cell pellet was then centrifuged at 400–600 x g for 5 min at 4 °C. The supernatant was transferred to a separate tube (cytoplasmic fraction). The nuclei pellet was then resuspended in ten volumes of 10:1 NIB-250 without detergent containing 1 mM DTT and 1x cOmplete, EDTA-free Protease Inhibitor. The nuclei were then pelleted by centrifugation at 400–600 x g for 5 min at 4 °C and the supernatant was discarded. The pellet was then resuspended 7 volumes relative to pellet volume of hypotonic buffer (3 mM EDTA, 0.2 mM EGTA containing 1 mM DTT and 1x cOmplete, EDTA-free Protease Inhibitor) and incubated on ice for 30 min, vortexing every 5 min. The insoluble chromatin fraction was collected by centrifugation for 4 min at 1700 x g. The supernatant, was retained, containing the nucleoplasm fraction. The chromatin pellet was washed with hypotonic buffer containing 1 mM DTT and protease inhibitors and the above centrifugation was repeated. The supernatant was discarded and the pellet retained and used as starting material for immunoprecipitation experiments. […]

[2] = system: RPE1 p53-/- cells; assay: Immunofluorescence foci, RPE1 p53-/- cells; assay type: cell-based, human; settings: RPE1 p53-/- cells treated with aphidicolin followed by acute CDK1i
Procedure: Immunofluorescence microscopy […] For detection of micronuclei, cells were fixed in 250 mM HEPES pH 7.5, 0.1% Triton X-100, 4% PFA in PBS for 20 minutes at 4 °C. Coverslips were then incubated for 5 min in 1x PBS with three buffer changes followed by incubation with 0.5% Triton X-100/ PBS for 10 min at room temperature. Coverslips were then incubated for 5 minutes in 1x PBS with three buffer changes. For EdU detection coverslips were transferred to a humidified chamber and incubated in EdU click it reaction buffer containing Alexafluor 488 azide for 1 h at room temperature followed by three 5 min washes in 1x PBS. Coverslips were then incubated in 5% FBS/PBS for 1 h followed by overnight incubation at 4 °C with primary antibody diluted in 5% FBS/PBS. Coverslips were then washed 3 × 5 min in 1x PBS followed by 1 h incubation at room temperature in 5% FBS/PBS containing secondary antibodies. Coverslips were incubated a further three times for 5 min in 1x PBS. Coverslips were then mounted on superfrost microscopy slides using Vectashield mounting medium with DAPI (Vector laboratories, […]). […] Cells were fixed in […] for 15 min at room temperature, followed by 3 × 5 min washes in 1xPBS. Coverslips were then incubated in 0.5% Triton-X/PBS for 10 min at room temperature, followed by a further 3 × 5 min 1xPBS washes. Coverslips were then incubated in blocking buffer (2% BSA, 0.05% Tween-20) for 1 h at room temperature, followed by incubation in respective primary antibodies overnight at 4 °C. Coverslips were then washed 3x for 5 min in 1x PBS followed by incubation for 1 h at room temperature in blocking buffer containing secondary antibodies. Coverslips were then washed 3x for 5 min in 1x PBS and mounted with Vectashield PLUS antifade mounting medium with DAPI (Vector laboratories, […]). Images were acquired using a Zeiss Axio Observer Z1 MarianasTM Microscope attached with a CSU-SoRa spinning disk unit using either a Photometrics Kinetix sCMOS camera built by Intelligent Imaging Innovations (3i) or a Zeiss Axio Observer Z1 MarianasTM Microscope attached with a CSUX1 spinning disk unit and Hamamatsu Flash 4 CMOS camera built by Intelligent Imaging Innovations (3i) or using an Opera Phenix Plus high content imaging system (Revvity). In each case 405, 488 and 640 laser lines were used in addition to DAPI, GFP/FITC, iRFP/CY5 emission filters. Quantification was carried out using FIJI (ImageJ, RRID:SCR_003070) software, CellProfiler (Broad Institute), Harmony (Revvity) or using […] Microsystems). Images of mitotic cells were analysed in 3D with maximum Z projections used for representative images in the manuscript to assist with visualisation.For interphase cells 2D images were analysed.

Structure (SMILES): O=C1NC(=NCc2cccs2)S/C1=C\c1ccc2ncccc2c1 [CDK1i]
- chromatin residency of eGFP-SLX4 and MUS81 [1]: markedly impaired chromatin residency of eGFP-SLX4 and MUS81
- MUS81 and TOPBP1 foci formation in prometaphase [2]: impairment of MUS81 and TOPBP1 foci formation in prometaphase cells
